The subject of test [1] is c-MET. Put plainly: c-MET protein degradation (Simple Western), MKN-45 cells. The test is classed as cell-based, human. The following applies: MKN-45 gastric cancer cells, c-MET overexpressing; 24 hours. Summed up: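 Cells at 2×10^5 cells/well exposed to compound for 24 h (gastric lines) or 48 h (lung lines). Lysates (3 μg protein) probed for c-MET by capillary Simple Western, normalized to GAPDH and expressed as % of 0.1% DMSO control. DC50 is the concentration giving 50% protein reduction.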

Test [2] relates to MKN-45. Put plainly: cell viability / antiproliferative activity (WST-8), MKN-45 cells. The settings on record: Homo sapiens; MKN-45 gastric cancer cells; 72 hours. It counts as cell-based.
Description: (§2) c-MET overexpressing human gastric cancer cell lines [MKN45] and [SNU638] were cultured in RPMI medium with 10% fetal bovine serum, penicillin (100 U/ml), and streptomycin (100 mg/ml), and c-MET exon 14 skipping mutant human gastric cancer cell lines [Hs746T] were cultured in DMEM media. The c-MET overexpressing human lung cancer cell line EBC-1 was cultured in MEM media with the addition of 10% fetal bovine serum, penicillin (100 U/ml), and streptomycin (100 mg/ml). […] The compound synthesized in accordance with the present invention was prepared with a raw material solution of 10 mM dissolved in DMSO (dimethyl sulfoxide), and was sequentially diluted and processed.
(§3) In order to observe the inhibitory activity on cell growth, cells were dispensed in a 96-well plate at a concentration of 5,000 cells/well, and then treated with the compound prepared at various concentrations for 72 hours. The viability of the cells was calculated using GraphicPad Prism 8.0 software by adding 10 ml per well of WST-8 (water soluble tetrazolium salt) sample, which reacts with dehydrogenase present in the electron transport system of mitochondria to produce formazon, incubated for 2 hours, and measured absorbance at 450 nm.
Test [3] deals with c-MET. The experiment in a line: c-MET protein degradation (Simple Western), SNU-638 cells. It counts as cell-based, human. The settings on record: SNU-638 gastric cancer cells, c-MET overexpressing; 24 hours. The method, then: (§1) In order to assess the resolution of the compound of the present invention for c-MET expressed in cells, cells were dispensed in a 12-well plate at a concentration of 2×10^5 cells/well, and then gastric cancer cell lines were treated with samples for 24 hours and lung cancer cell lines were treated for 48 hours. Cell lysates were collected using a scraper on ice, centrifuged at 4° C. 15,000 rpm for 30 min to obtain a protein-containing supernatant. Protein expression was then measured using the Simple Western Automated Western Blot System Abby instrument using 3 μg of protein for each sample. SDS and heat-induced denaturation proteins were separated by molecular weight, attached to capillary, reacted with anti-c-MET or anti-GAPDH antibodies, which are primary antibodies, and then reacted with HRP-conjugated secondary antibodies, and analyzed the protein expression signal with compass software. Protein expression was normalized based on the expression value of GAPDH, and protein development in each sample was measured as a percentage (%) based on 100% of samples treated with 0.1% DMSO carriers, and DC50 (concentration of a compound where 50% protein inhibition is achieved) was calculated from the change in protein expression amount due to compound treatment.

In test [4] the test system is c-MET. The experiment in a line: c-MET protein degradation (Simple Western), EBC-1 cells. The settings on record: EBC-1 lung cancer cells, c-MET overexpressing; 48 hours. The test is classed as cell-based, human. The protocol: as §1
Test [5] deals with SNU-638. The experiment in a line: cell viability / antiproliferative activity (WST-8), SNU-638 cells. The settings on record: Homo sapiens; SNU-638 gastric cancer cells; 72 hours. The test is classed as cell-based, human. (In general: Tetrazolium assays rely on reduction of a dye to a coloured formazan, in cell work by metabolically active cells.)
Description: as §2, §3

For `Cn1cc(-c2cnc3c(nnn3C[C@@H]3CN(c4ncc(-c5ccc(CN6CCN(C(=O)COCCOCCNc7ccc8c(=O)n(C9CCC(=O)NC9=O)ncc8c7)CC6)cc5)cn4)CCO3)n2)cn1` (stereo partly drawn) [ICT-0000935], the DC50 (in general, the concentration at which degradation of the target reaches its halfway point) in test [1] lay within 100 to 1000 nM. The IC50 (commonly the point on the concentration scale where inhibition reaches its midpoint) in test [2] was in the range of 100 to 1000 nM.
In the case of `N#Cc1cccc(C2=NC(Cc3cccc(-c4ncc(OCC5CCN(CC(=O)N6CCN(CC7CCN(c8ccc9c(=O)n(C%10C=CC(=O)NC%10=O)ncc9c8)CC7)CC6)CC5)cn4)c3)C(=O)C=C2)c1` (stereo not drawn) [ICT-0000975], in test [1], the half-maximal degradation concentration (DC50) lay in the range of 100 to 1000 nM. The 50% inhibitory concentration (IC50) in test [2] is < 100 nM.
In turn, `Cn1cc(-c2cnc3c(nnn3CC3CN(c4ncc(-c5ccc(CN6CCC(CN7CCN(c8ccc9c(=O)n(C%10CCC(=O)NC%10=O)ncc9c8)CC7)CC6)cc5)cn4)CCO3)n2)cn1` [ICT-0000978, 3-(6-(4-((1-(4-(2-((S)-2-((5-(1-methyl-1H-pyrazole-4-yl)-1H-[1,2,3]triazolo[4,5-b]pyrazine-1-yl)methyl)morpholino)pyrimidine-5-il)benzyl)piperidine-4-il)methyl)piperazine-1-yl)1-oxopthalazine-2(1H)-yl)piperidine-2,6-dione] had a DC50 in test [1] of 100 to 1000 nM. Further, the half-inhibitory concentration (IC50) in test [2] was < 100 nM.
Take `Cc1nn(C2CCC(=O)NC2=O)c(=O)c2c(NCC(=O)N3CCC(CN4CCC(COc5cnc(-c6cccc(Cn7nc(-c8cccc(C#N)c8)ccc7=O)c6)nc5)CC4)CC3)cccc12` (stereo not drawn) [ICT-0000980]: the DC50 in test [1] was < 100 nM; in test [3], > 1000 nM.
Turning to `Cc1nn(C2CCC(=O)NC2=O)c(=O)c2ccc(NCCOCCOCCOCC(=O)N3CCC(COc4cnc(-c5cccc(Cn6nc(-c7cccc(C#N)c7)ccc6=O)c5)nc4)CC3)cc12` (stereo not drawn) [ICT-0001088], the DC50 in test [1] is < 100 nM. For the same compound, the concentration for half-maximal inhibition (IC50) in test [2] lay in the range of 100 to 1000 nM.
For `Cc1nn(C2CCC(=O)NC2=O)c(=O)c2ccc(NCCOCCOCCOCCOCC(=O)N3CCC(COc4cnc(-c5cccc(Cn6nc(-c7cccc(C#N)c7)ccc6=O)c5)nc4)CC3)cc12` (stereo not drawn) [ICT-0001089, 3-(1-(3-(5-((1-(14-((2-(2,6-dioxopiperidine-3-yl)-4-methyl-1-oxo-1,2-dihydrophthalazine-6-yl)amino)3,6,9,12-tetratetradecanoyl)piperidine-4-yl)methoxy)pyrimidin-2-yl)benzyl)6-oxo-1,6-dihydropyridazine-3-yl)benzonitrile], in that order: 100 to 1000 nM and 100 to 1000 nM.
Consider `Cc1nn(C2CCC(=O)NC2=O)c(=O)c2cc(N3CCN(C(=O)CN4CCC(COc5cnc(-c6cccc(Cn7nc(-c8cccc(C#N)c8)ccc7=O)c6)nc5)CC4)CC3)ccc12` (stereo not drawn) [ICT-0001214, 3-(1-(3-(5-((1-(2-(4-(3-(2,6-dioxopiperidin-3-yl)-1-methyl-4-oxo-3,4-dihydropetalazine-6-yl)piperazine-1-il)acetyl)piperidine-4-il)methoxy)pyrimidine-2-yl)benzyl)6-oxo-1,6-dihydropyridazine-3-yl)benzonitrile], for which the DC50 in test [1] is < 100 nM. The IC50 in test [2] is < 100 nM.
Regarding `Cc1nn(C2CCC(=O)NC2=O)c(=O)c2cc(N3CCN(CCCC(=O)N4CCC(COc5cnc(-c6cccc(Cn7nc(-c8cccc(C#N)c8)ccc7=O)c6)nc5)CC4)CC3)ccc12` (stereo not drawn) [ICT-0001216, 3-(1-(3-(5-((1-(4-(4-(3-(2,6-dioxopiperidin-3-yl)-1-methyl-4-oxo-3,4-dihydroptalazine-6-yl)piperazine-1-il)butanoyl)piperidine-4-il)methoxy)pyrimidine-2-yl)benzyl)6-oxo-1,6-dihydropyridazine-3-yl)benzonitrile], the half-maximal degradation concentration (DC50) in test [1] is < 100 nM. Also, in test [2], the IC50 was < 100 nM.
For the compound `Cc1nn(C2CCC(=O)NC2=O)c(=O)c2ccc(N3CCN(C(=O)C4CCN(CC(=O)N5CCC(COc6cnc(-c7cccc(Cn8nc(-c9cccc(C#N)c9)ccc8=O)c7)nc6)CC5)CC4)CC3)cc12` (stereo not drawn) [ICT-0001218], the DC50 in test [1] and in test [3] was < 100 nM in each case.
Consider `Cc1nn(C2CCC(=O)NC2=O)c(=O)c2cc(N3CCN(CC4CCN(C(=O)CN5CCC(COc6cnc(-c7cccc(Cn8nc(-c9cccc(C#N)c9)ccc8=O)c7)nc6)CC5)CC4)CC3)c(F)cc12` (stereo not drawn) [ICT-0001231, 3-(1-(3-(5-((1-(2-(4-(4-(4-(3-(2,6-dioxopiperidine-3-yl)-7-fluoro-1-methyl-4-oxo-3,4-dihydrophthalazine-6-yl)piperazine-1-il)methyl)piperidine-1-il)-2-oxoethyl)piperidine-4-yl)methoxy)pyrimidine-2-yl)benzyl)6-oxo-1,6-dihydropyridazine-3-yl)benzonitrile], for which, in test [2], the half-maximal inhibitory concentration (IC50) was < 100 nM.
Turning to `N#Cc1cccc(-c2ccc(=O)n(Cc3cccc(-c4ncc(OCC5CCN(CC(=O)N6CC(N7CCN(c8ccc9c(=O)n(C%10CCC(=O)NC%10=O)ncc9c8)CC7)C6)CC5)cn4)c3)n2)c1` (stereo not drawn) [ICT-0001232], the DC50 in test [1], in test [3] and in test [4] was < 100 nM each time.
In the case of `Cc1nn(C2CCC(=O)NC2=O)c(=O)c2ccc(N3CCN(CC4CCN(CC(=O)N5CCC(COc6cnc(-c7cccc(Cn8nc(-c9cccc(C#N)c9)ccc8=O)c7)nc6)CC5)CC4)CC3)cc12` (stereo not drawn) [ICT-0001272], the DC50 in test [1] is < 100 nM. Moreover, in test [2], the concentration for half-maximal inhibition (IC50) is < 100 nM.
Take `N#Cc1cccc(-c2ccc(=O)n(Cc3cccc(-c4ncc(OCC5CCN(CCCCCc6ccc7c(=O)n(C8CCC(=O)NC8=O)ncc7c6)CC5)cn4)c3)n2)c1` (stereo not drawn) [ICT-0001304]: in test [5], the half-inhibitory concentration (IC50) was < 100 nM.
On the same count and under the same terms, the value for `N#Cc1cccc(-c2ccc(=O)n(Cc3cccc(-c4ncc(OCC5CCN(CCOCCOCCOCC#Cc6cccc7c(=O)n(C8CCC(=O)NC8=O)ncc67)CC5)cn4)c3)n2)c1` (stereo not drawn) [ICT-0001307] was < 100 nM; that for `Cc1nn(C2CCC(=O)NC2=O)c(=O)c2ccc(N3CCN(C4CCN(CCN5CCC(COc6cnc(-c7cccc(Cn8nc(-c9cccc(C#N)c9)ccc8=O)c7)nc6)CC5)CC4)CC3)cc12` (stereo not drawn) [ICT-0001317] was < 100 nM.
The same measure, in the same setting: the value for `Cc1nn(C2CCC(=O)NC2=O)c(=O)c2cc(F)c(N3CCN(CC4CCN(CCN5CCC(COc6cnc(-c7cccc(Cn8nc(-c9cccc(C#N)c9)ccc8=O)c7)nc6)CC5)CC4)CC3)cc12` (stereo not drawn) [ICT-0001318] was < 100 nM; that for `Cc1nn(C2CCC(=O)NC2=O)c(=O)c2cc(N3CCN(CC4CCN(CCN5CCC(COc6cnc(-c7cccc(Cn8nc(-c9cccc(C#N)c9)ccc8=O)c7)nc6)CC5)CC4)CC3)ccc12` (stereo not drawn) [ICT-0001321] was < 100 nM.
`Cc1nn(C2CCC(=O)NC2=O)c(=O)c2ccc(N3CCN(C4CN(CCN5CCC(COc6cnc(-c7cccc(Cn8nc(-c9cccc(C#N)c9)ccc8=O)c7)nc6)CC5)C4)CC3)cc12` (stereo not drawn) [ICT-0001325]: in test [3], the 50% degradation concentration (DC50) is > 1000 nM.
The same measure, in the same setting: the value for `Cc1nn(C2CCC(=O)NC2=O)c(=O)c2cc(N3CCN(CC4CCN(CCN5CCC(COc6cnc(-c7cccc(Cn8nc(-c9cccc(C#N)c9)ccc8=O)c7)nc6)CC5)CC4)CC3)c(F)cc12` (stereo not drawn) [ICT-0001326] was > 1000 nM.
As to `N#Cc1cccc(-c2ccc(=O)n(Cc3cccc(-c4ncc(OCC5CCN(c6ccc(NC7CCC(=O)NC7=O)cc6F)CC5)cn4)c3)n2)c1` (stereo not drawn) [ICT-0001383], the DC50 in test [3] and in test [4] was < 100 nM in each case.
For the compound `N#Cc1cccc(-c2ccc(=O)n(Cc3cccc(-c4ncc(OCC5CCN(CCN6CCN(c7ccc(NC8CCC(=O)NC8=O)cc7F)CC6)CC5)cn4)c3)n2)c1` (stereo not drawn) [ICT-0001433, 3-(1-(3-(5-((1-(1-(2-(4-((2,6-dioxopiperidine-3-yl)amino)-2-fluorophenyl)piperazine-1-il)ethyl)piperidine-4-il)methoxy)pyrimidine-2-yl)benzyl)6-oxo-1,6-dihydropyridazine-3-yl)benzonitrile], the half-maximal degradation concentration (DC50) in test [3] and in test [4] was < 100 nM throughout.
For `N#Cc1cccc(-c2ccc(=O)n(Cc3cccc(-c4ncc(-c5cccc(CN6CCN(c7ccc(NC8CCC(=O)NC8=O)cc7F)CC6)c5)cn4)c3)n2)c1` (stereo not drawn) [ICT-0001434], the DC50 was > 1000 nM in test [3] and < 100 nM in test [4].
As to `Cn1cc(-c2cnc3c(nnn3C[C@@H]3CN(c4ncc(-c5ccc(CN6CCN(CC(=O)N7CCN(c8ccc(NC9CCC(=O)NC9=O)cc8F)CC7)CC6)cc5)cn4)CCO3)n2)cn1` (stereo partly drawn) [ICT-0001439], the DC50 in test [3] and in test [4] was < 100 nM in each case.
As for `N#Cc1cccc(-c2ccc(=O)n(Cc3cccc(-c4ncc(-c5cccc(CN6CCN(c7ccc(C8CCC(=O)NC8=O)cn7)CC6)c5)cn4)c3)n2)c1` (stereo not drawn) [ICT-0001449], the DC50 in test [3] is > 1000 nM; in test [4], < 100 nM.
For `N#Cc1cccc(-c2ccc(=O)n(Cc3cccc(-c4ncc(-c5cccc(CN6CCC(CN7CCN(c8ccc(NC9CCC(=O)NC9=O)cc8F)CC7)CC6)c5)cn4)c3)n2)c1` (stereo not drawn) [ICT-0001450], in that order: 100 to 1000 nM and < 100 nM.
For `N#Cc1cccc(-c2ccc(=O)n(Cc3cccc(-c4ncc(OCC5CCN(C(=O)CN6CCN(c7ccc(NC8CCC(=O)NC8=O)cc7F)CC6)CC5)cn4)c3)n2)c1` (stereo not drawn) [ICT-0001494], in that order: < 100 nM and < 100 nM.

(Values after patent US20260306639A1, “DEGRADER FOR DECOMPOSING CMET PROTEIN, AND PHARMACEUTICAL COMPOSITION COMPRISING SAME” (INNOCURE THERAPEUTICS, INC., priority 2022, published 2026).)
